Measurements: patent US20230159597A1 (priority 2020, published 2023)

Tested on: wild-type EBOV Mayinga

Row | Compound | IC50 times higher than both TAT-EBO-PEG4-Chol and TAT-EBO-dPEG4-Chol | relative potency
1 | CC[C@H](C)[C@H](NC(=O)CNC(=O)[C@H](CO)NC(=O)CNC(=O)[C@H](CCCNC(=N)N)NC(=O)[C@H](CCCNC(=N)N)NC(=O)[C@H](CCCNC(=N)N)NC(=O)[C@H](CCC(N)=O)NC(=O)[C@H](CCCNC(=N)N)NC(=O)[C@H](CCCNC(=N)N)NC(=O)[C@H](CCCCN)NC(=O)[C@H](CCCCN)NC(=O)[C@H](CCCNC(=N)N)NC(=O)CNC(=O)[C@H](Cc1ccc(O)cc1)NC(C)=O)C(=O)N[C@@H](C)C(=O)N[C@@H](C)C(=O)N[C@H](C(=O)N[C@@H](CC(C)C)C(=O)N1CCC[C@H]1C(=O)N[C@@H](Cc1c[nH]cn1)C(=O)N[C@@H](CC(=O)O)C(=O)N[C@@H](Cc1c[nH]c2ccccc12)C(=O)N[C@H](C(=O)N[C@@H](CCCCN)C(=O)N[C@@H](CC(N)=O)C(=O)N[C@H](C(=O)N[C@H](C(=O)N[C@@H](CC(=O)O)C(=O)N[C@@H](CCCCN)C(=O)N[C@H](C(=O)N[C@@H](CC(=O)O)C(=O)N[C@@H](CCC(N)=O)C(=O)N[C@H](C(=O)N[C@H](C(=O)N[C@@H](Cc1c[nH]cn1)C(=O)N[C@@H](CC(=O)O)C(=O)N[C@@H](Cc1ccccc1)C(=O)N[C@H](C(=O)N[C@@H](CC(=O)O)C(=O)N[C@@H](CCCCN)C(=O)NCC(=O)N[C@@H](CO)C(=O)NCC(=O)N[C@@H](CO)C(=O)NCC(=O)N[C@@H](CSCC(=O)NCCOCCOCCOCCOCCC(=O)O[C@H]1CC[C@@]2(C)C(=CC[C@H]3[C@@H]4CC[C@H]([C@H](C)CCCC(C)C)[C@@]4(C)CC[C@@H]32)C1)C(N)=O)C(C)C)[C@@H](C)CC)[C@@H](C)CC)[C@@H](C)CC)[C@@H](C)O)[C@@H](C)CC)[C@@H](C)O)[C@@H](C)CC [TAT-EBO-IAAILP-PEG4-Chol] | around 10 times | 
2 | CC[C@H](C)[C@H](NC(=O)CNC(=O)[C@H](CO)NC(=O)CNC(=O)[C@H](CCCNC(=N)N)NC(=O)[C@H](CCCNC(=N)N)NC(=O)[C@H](CCCNC(=N)N)NC(=O)[C@H](CCC(N)=O)NC(=O)[C@H](CCCNC(=N)N)NC(=O)[C@H](CCCNC(=N)N)NC(=O)[C@H](CCCCN)NC(=O)[C@H](CCCCN)NC(=O)[C@H](CCCNC(=N)N)NC(=O)CNC(=O)[C@H](Cc1ccc(O)cc1)NC(C)=O)C(=O)N[C@@H](C)C(=O)N[C@@H](C)C(=O)N[C@H](C(=O)N[C@@H](CC(C)C)C(=O)N1CCC[C@H]1C(=O)N[C@@H](Cc1c[nH]cn1)C(=O)N[C@@H](CC(=O)O)C(=O)N[C@@H](Cc1c[nH]c2ccccc12)C(=O)N[C@H](C(=O)N[C@@H](CCCCN)C(=O)N[C@@H](CC(N)=O)C(=O)N[C@H](C(=O)N[C@H](C(=O)N[C@@H](CC(=O)O)C(=O)N[C@@H](CCCCN)C(=O)N[C@H](C(=O)N[C@@H](CC(=O)O)C(=O)N[C@@H](CCC(N)=O)C(=O)N[C@H](C(=O)N[C@H](C(=O)N[C@@H](Cc1c[nH]cn1)C(=O)N[C@@H](CC(=O)O)C(=O)N[C@@H](Cc1ccccc1)C(=O)N[C@H](C(=O)N[C@@H](CC(=O)O)C(=O)N[C@@H](CCCCN)C(=O)NCC(=O)N[C@@H](CO)C(=O)NCC(=O)N[C@@H](CO)C(=O)NCC(=O)N[C@@H](CSCC(=O)O[C@H]1CC[C@@]2(C)C(=CC[C@H]3[C@@H]4CC[C@H]([C@H](C)CCCC(C)C)[C@@]4(C)CC[C@@H]32)C1)C(N)=O)C(C)C)[C@@H](C)CC)[C@@H](C)CC)[C@@H](C)CC)[C@@H](C)O)[C@@H](C)CC)[C@@H](C)O)[C@@H](C)CC [TAT-EBO-IAAILP-Chol] |  | the most potent peptide we designed so far
